Laboratory results taken from article PMC8151276, “An Integrated Approach toward NanoBRET Tracers for Analysis of GPCR Ligand Engagement” (Molecules, 2021).

How the values were obtained:
Assay type in all cases: binding
LHCGR = target: T1, LHCGR (Homo sapiens, UniProt P22888); test: NanoBRET screen HiBiT-LHCGR in HEK293; conditions: LHCGR
T1 construct: purchased Promega (in-house HiBiT-GPCR construct library, NanoBRET)
Method: (§1) Each tracer candidate was screened across the entire library of HiBiT-GPCR constructs using NanoBRET as the detection modality. As depicted in Figure 4A, the specificity of interactions was evaluated through decrease in BRET due to competitive displacement of a bound tracer by excess parental compound. Each tracer was analyzed for binding to each HiBiT-GPCR fusion in the absence and in the presence of competing parental compound. Briefly, HEK293 cells were transfected with HiBiT-GPCR constructs diluted into promoterless DNA to reduce expression and maximize translocation to the cell surface. Each tracer candidate was then screened at concentrations of 1 μM and 0.1 μM across cells expressing these fusions. Cells were treated for 1.5 h with tracer either alone or in the presence of 20 μM competing parental compound (i.e., control). BRET was measured upon addition of purified LgBiT and subsequent complementation with HiBiT genetically fused to a GPCR. The specificity of interactions was assessed through a decrease in BRET signal due to competitive displacement of the bound tracer. To further gauge the robustness of these interactions, the fold response over the control (i.e., BRETtracer/BRETcontrol) was calculated. We chose a 1.5-fold response, which translates to ≥7-fold signal over noise as the minimal threshold required to score an interaction as positive. […]. Below we highlight the screening results obtained for our exemplary fluorescent tracers based on Clozapine, Amitriptyline and AZD1283.
(§2) HiBiT-GPCR DNA constructs were diluted in 10 mM Tris pH 8 to a final concentration of 0.01 μg/μL, arrayed in 96-well plates and stored at −20 °C. For transfection, HEK293 cells were suspended in Opti-MEM (without phenol red) supplemented with 2% fetal bovine serum (Seradigm) and 100 units/mL penicillin–streptomycin (Gibco) at a final concentration of 220,000 cells/mL and dispensed into white 96-well plates at 90 μL/well. Subsequent transfections and screens were carried using an Agilent Bravo Automated Liquid Handling Platform. First, the 96-well HiBiT DNA arrays were diluted 25-fold in Opti-MEM (without serum or phenol red) to a final concentration of 0.0004 μg/μL and 20 μL of the diluted DNAs were transferred into new 96-well plates. Next, promoterless carrier DNA (1 μg/μL) was diluted 25-fold (0.04 μg/μL) and then dispensed into the diluted arrays at 20 μL/well. Following brief mixing, Viafect transfection reagent (Promega) diluted 16-fold into Opti-MEM was dispensed into the plates at 40 μL/well. After mixing by pipetting, plates were incubated for 10 min on the pipetting station deck. The DNA-transfection reagent complexes were then added to plates containing cells. To facilitate the screen, 10 μL of DNA-transfection reagent complexes were added in duplicates to the top 4 and bottom 4 rows, resulting in two identical 48-well arrays per plate. Plates with transfected cells were incubated for 18–20 h at 37 °C/5% CO2. A screen of each tracer across the entire library using two different concentrations requires duplicate plates of transfected cells. Depending on the number of tracers being screened, transfections can be scaled up using the same ratios. The next day, for each tracer, four 20× screening solutions in tracer dilution buffer (Promega) were prepared: two duplicates at final concentration of 20 μM and two duplicates at a final concentration of 2 μM. A competing unmodified compound was added to one of each duplicate at a final concentration of 400 μM. The four resulting solutions were diluted 4-fold in Opti-MEM without serum or phenol red to generate 5× solutions (5 µM and 0.5 µM tracer +/− 100 μM competing compound). To screen the library, a BioTek MultiFlo FX liquid dispenser was used to dispense 22.5 µL of tracer solution to the top 4 rows and 22.5 µL tracer + competing compound solution to the 4 bottom rows. Plates were briefly mixed on an orbital shaker and incubated for 1.5 h at room temperature. […]

GRM8 = target: T2, GRM8 (Homo sapiens, UniProt O00222); test: NanoBRET screen HiBiT-GRM8 in HEK293; conditions: GRM8
T2 construct: purchased Promega (in-house HiBiT-GPCR construct library, NanoBRET)
Method: as §1, §2

PTGDR2 = target: T3, PTGDR2 (Homo sapiens, UniProt Q9Y5Y4); test: NanoBRET screen HiBiT-PTGDR2 in HEK293; conditions: PTGDR2
T3 construct: purchased Promega (in-house HiBiT-GPCR construct library, NanoBRET)
T3 sequence (Q9Y5Y4 1-395): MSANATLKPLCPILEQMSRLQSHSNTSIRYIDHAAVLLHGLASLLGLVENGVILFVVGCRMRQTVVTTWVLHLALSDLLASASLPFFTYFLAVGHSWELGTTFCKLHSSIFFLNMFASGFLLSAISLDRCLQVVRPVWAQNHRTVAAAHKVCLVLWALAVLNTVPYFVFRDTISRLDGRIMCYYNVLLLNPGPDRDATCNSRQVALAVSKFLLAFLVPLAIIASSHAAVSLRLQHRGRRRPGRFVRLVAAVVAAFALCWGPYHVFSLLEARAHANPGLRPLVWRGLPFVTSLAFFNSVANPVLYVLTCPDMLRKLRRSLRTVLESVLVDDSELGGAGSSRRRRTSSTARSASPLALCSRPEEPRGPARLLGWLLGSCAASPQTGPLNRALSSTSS
Method: as §1, §2

T2 sequence (O00222 34-908): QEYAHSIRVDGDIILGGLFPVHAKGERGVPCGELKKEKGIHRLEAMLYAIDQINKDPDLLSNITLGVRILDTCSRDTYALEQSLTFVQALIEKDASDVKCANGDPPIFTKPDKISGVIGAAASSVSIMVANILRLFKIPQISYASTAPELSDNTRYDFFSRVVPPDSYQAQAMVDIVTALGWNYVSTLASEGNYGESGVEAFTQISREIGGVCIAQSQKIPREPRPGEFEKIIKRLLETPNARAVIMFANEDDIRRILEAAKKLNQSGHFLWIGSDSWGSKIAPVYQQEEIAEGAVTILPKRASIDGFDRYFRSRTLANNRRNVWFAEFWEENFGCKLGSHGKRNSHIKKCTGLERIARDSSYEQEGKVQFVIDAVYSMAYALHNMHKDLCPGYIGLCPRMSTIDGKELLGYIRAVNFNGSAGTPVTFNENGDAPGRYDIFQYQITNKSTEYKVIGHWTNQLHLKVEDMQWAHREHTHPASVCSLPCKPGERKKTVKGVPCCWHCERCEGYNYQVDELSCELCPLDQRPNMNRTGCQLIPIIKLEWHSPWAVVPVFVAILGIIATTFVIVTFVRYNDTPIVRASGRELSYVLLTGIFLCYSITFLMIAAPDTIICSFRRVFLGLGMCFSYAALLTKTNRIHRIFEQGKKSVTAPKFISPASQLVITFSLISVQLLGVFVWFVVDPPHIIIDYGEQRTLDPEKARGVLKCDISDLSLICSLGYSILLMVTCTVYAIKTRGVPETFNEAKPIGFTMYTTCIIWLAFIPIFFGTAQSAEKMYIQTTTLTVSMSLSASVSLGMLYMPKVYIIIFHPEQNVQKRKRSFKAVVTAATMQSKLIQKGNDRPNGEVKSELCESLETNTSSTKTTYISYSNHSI
T1 sequence (P22888 27-699): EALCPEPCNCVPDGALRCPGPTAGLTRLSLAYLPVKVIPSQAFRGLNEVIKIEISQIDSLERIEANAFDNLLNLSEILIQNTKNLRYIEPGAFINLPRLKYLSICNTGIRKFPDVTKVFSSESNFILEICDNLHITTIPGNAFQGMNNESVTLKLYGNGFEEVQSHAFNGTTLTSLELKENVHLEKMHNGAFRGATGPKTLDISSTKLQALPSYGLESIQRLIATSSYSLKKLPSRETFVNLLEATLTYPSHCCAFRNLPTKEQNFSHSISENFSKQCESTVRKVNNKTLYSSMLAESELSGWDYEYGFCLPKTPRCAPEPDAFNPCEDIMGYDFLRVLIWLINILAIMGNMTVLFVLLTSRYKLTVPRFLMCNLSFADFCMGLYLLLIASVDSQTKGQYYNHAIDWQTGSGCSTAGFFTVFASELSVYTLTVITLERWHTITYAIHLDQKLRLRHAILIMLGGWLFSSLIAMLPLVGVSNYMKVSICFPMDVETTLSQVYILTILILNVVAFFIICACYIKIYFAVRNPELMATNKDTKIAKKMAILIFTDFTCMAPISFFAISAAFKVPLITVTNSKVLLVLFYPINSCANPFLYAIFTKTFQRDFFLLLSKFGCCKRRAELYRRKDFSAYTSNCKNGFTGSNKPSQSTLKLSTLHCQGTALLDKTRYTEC

Compound: CC(C)N(CC[C@H](c1ccccc1)c1cc(CCNC(=O)CCOCCOCCOCCOCCNC(=O)CCc2ccc3n2[B-](F)(F)[N+]2=C(c4ccc[nH]4)C=CC2=C3)ccc1O)C(C)C [Tolterodine-2-NB590]
- NanoBRET Fold Response (LHCGR; tracer 0.1μM): 1.08
- NanoBRET Fold Response (LHCGR; tracer 1μM): 1.02
- NanoBRET Fold Response (GRM8; tracer 0.1μM): 1.00
- NanoBRET Fold Response (GRM8; tracer 1μM): 1.31
- NanoBRET Fold Response (PTGDR2; tracer 0.1μM): 0.95
- NanoBRET Fold Response (PTGDR2; tracer 1μM): 0.99

Compound: CC(C)N(CC[C@H](c1ccccc1)c1cc(CCNC(=O)c2ccc(CNC(=O)CCc3ccc4n3[B-](F)(F)[N+]3=C(c5ccc[nH]5)C=CC3=C4)cc2)ccc1O)C(C)C [Tolterodine-BZ-NB590]
- NanoBRET Fold Response (LHCGR; tracer 0.1μM): 0.98
- NanoBRET Fold Response (LHCGR; tracer 1μM): 1.05
- NanoBRET Fold Response (GRM8; tracer 0.1μM): 1.02
- NanoBRET Fold Response (GRM8; tracer 1μM): 1.03
- NanoBRET Fold Response (PTGDR2; tracer 0.1μM): 0.98
- NanoBRET Fold Response (PTGDR2; tracer 1μM): 0.96

Compound: CCCn1c(=O)c2[nH]c(-c3ccc(OCC(=O)NCCNC(=O)CCOCCNC(=O)c4ccc(CNC(=O)CCc5ccc6n5[B-](F)(F)[N+]5=C(c7ccc[nH]7)C=CC5=C6)cc4)cc3)nc2n(CCC)c1=O [XAC-3-NB590]
- NanoBRET Fold Response (LHCGR; tracer 0.1μM): 1.01
- NanoBRET Fold Response (LHCGR; tracer 1μM): 1.00
- NanoBRET Fold Response (GRM8; tracer 0.1μM): 0.99
- NanoBRET Fold Response (GRM8; tracer 1μM): 1.04
- NanoBRET Fold Response (PTGDR2; tracer 0.1μM): 1.00
- NanoBRET Fold Response (PTGDR2; tracer 1μM): 1.06
